Laboratory results published in patent US20190381037A1, “Benzylaminopyridylcyclopropanecarboxylic acids, pharmaceutical compositions and uses thereof” (Boehringer Ingelheim International GmbH, priority 2017, published 2019).

Each compound was assayed against human GPR40 receptor (Homo sapiens, UniProt O14842) (assay: IP1 accumulation measurements using the IPOne assay system). Details: 1321N1 cells stably expressing human GPR40 receptor; stimulated 1 h at 37° C.
human GPR40 receptor, sequence (O14842 whole entry): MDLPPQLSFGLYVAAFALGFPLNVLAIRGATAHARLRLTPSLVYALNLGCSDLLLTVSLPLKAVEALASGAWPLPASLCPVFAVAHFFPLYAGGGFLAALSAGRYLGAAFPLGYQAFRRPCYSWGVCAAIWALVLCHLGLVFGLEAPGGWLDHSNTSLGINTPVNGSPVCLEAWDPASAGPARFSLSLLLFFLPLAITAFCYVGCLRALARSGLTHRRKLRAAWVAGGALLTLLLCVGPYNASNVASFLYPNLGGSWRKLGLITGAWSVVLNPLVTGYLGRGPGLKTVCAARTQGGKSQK
Format: cell-based
Description: IP1 accumulation measurements using the IPOne assay system—1321N1 cells stably expressing human GPR40 receptor (Euroscreen, Belgium) are seeded 24 h before the assay in white 384-well plates in culture medium containing 10% FCS, 1% Na-Pyruvate and 400 μg/mL G418. IP1 is assayed according to the manufacturer's description (Cisbio Bioassays, France). In brief, the assay is started by substitution of the culture medium by stimulation buffer (Hepes 10 mM, CaCl2) 1 mM, MgCl2 0.5 mM, KCl 4.2 mM, NaCl 146 mM, glucose 5.5 mM and LiCl 50 mM, pH 7.4). Cells are stimulated for 1 h at 37° C., 5% CO2 by addition of the compounds that are diluted in stimulation buffer containing LiCl. Assays are stopped by adding HTRF-conjugates (IP1-d2 and Anti-IP1 cryptate Tb) and lysis buffer, provided by the manufacturer. After an incubation time of 1 h at room temperature plates are measured using an EnVision™, Perkin Elmer. The obtained fluorescence ratios at 665/615 […] are then used to calculate the pEC50 values using Assay Explorer 3.3 Software (Accelrys, Inc.) by interpolation using an IP1 reference curve and subsequent sigmoidal curve fitting allowing for a variable hill slope.
With `Cc1cc(OCCC(C)(C)O)cc(C)c1-c1cc(COc2cnc([C@H]3C[C@@H]3C(=O)O)cn2)c(F)cc1F` [Example 1, (1 S,2S)-2-{5-[4,6-Difluoro-4′-(3-hydroxy-3-methyl-butoxy)-2′,6′-dimethyl-biphenyl-3-ylmethoxy]-pyrazin-2-yl}-cyclopropanecarboxylic acid] the EC50 was 6 nM.
In the case of `Cc1cc(-c2nnn(C)n2)cc(C)c1-c1cccc(COc2cnc([C@H]3C[C@@H]3C(=O)O)cn2)c1` [Example 2, (1 S,2S)-2-{5-[2′,6′-Dimethyl-4′-(2-methyl-2H-tetrazol-5-yl)-biphenyl-3-ylmethoxy]-pyrazin-2-yl}-cyclopropanecarboxylic acid], the EC50 is reported as 3 nM.
For `O=C(O)[C@H]1C[C@@H]1c1cnc(OCc2cccc(-c3ccccc3C(F)(F)F)c2)cn1` [Example 3, (1 S,2S)-2-[5-(2′-Trifluoromethyl-biphenyl-3-ylmethoxy)-pyrazin-2-yl]-cyclopropanecarboxylic acid], the EC50 was 24 nM.
Work on `COc1cc(C)c(-c2cccc(COc3cnc([C@H]4C[C@@H]4C(=O)O)cn3)c2)c(C)c1` [Example 4, (1 S,2S)-2-[5-(4′-Methoxy-2′,6′-dimethyl-biphenyl-3-ylmethoxy)-pyrazin-2-yl]-cyclopropanecarboxylic acid] yielded an EC50 of 12 nM.
`O=C(O)[C@H]1C[C@@H]1c1cnc(OCc2cccc(-c3ccc(-c4cnco4)cc3)c2)cn1` [Example 5, (1 S,2S)-2-[5-(4′-Oxazol-5-yl-biphenyl-3-ylmethoxy)-pyrazin-2-yl]-cyclopropane-carboxylic acid] was tested, and the EC50 was 67 nM.
Compound `Cc1cc(O[C@H]2CCOC2)cc(C)c1-c1cccc(COc2cnc([C@H]3C[C@@H]3C(=O)O)cn2)c1` [Example 6, (1 S,2S)-2-(5-{2′,6′-Dimethyl-4′-[(S)-(tetrahydro-furan-3-yl)oxy]-biphenyl-3-ylmethoxy}-pyrazin-2-yl)-cyclopropanecarboxylic acid] has an EC50 of 10 nM.
`Cc1cc(OC2CCOCC2)cc(C)c1-c1cccc(COc2cnc([C@H]3C[C@@H]3C(=O)O)cn2)c1` [Example 7, (1 S,2S)-2-{5-[2′,6′-Dimethyl-4′-(tetrahydro-pyran-4-yloxy)-biphenyl-3-ylmethoxy]-pyrazin-2-yl}-cyclopropanecarboxylic acid] was tested, and the EC50 was 8 nM.
In the case of `Cc1cc(OCCC(C)(C)O)cc(C)c1-c1cccc(COc2cnc([C@H]3C[C@@H]3C(=O)O)cn2)c1` [Example 8, (1 S,2S)-2-{5-[4′-(3-Hydroxy-3-methyl-butoxy)-2′,6′-dimethyl-biphenyl-3-ylmethoxy]-pyrazin-2-yl}-cyclopropanecarboxylic acid], the EC50 is reported as 7 nM.
With `Cc1cc(-c2ccc(=O)n(C)c2)cc(C)c1-c1cccc(COc2cnc([C@H]3C[C@@H]3C(=O)O)cn2)c1` [Example 9, (1 S,2S)-2-{5-[2′,6′-Dimethyl-4′-(1-methyl-6-oxo-1,6-dihydro-pyridin-3-yl)-biphenyl-3-ylmethoxy]-pyrazin-2-yl}-cyclopropanecarboxylic acid] the EC50 was 9 nM.
`Cc1cc(-c2cnccn2)cc(C)c1-c1cccc(COc2cnc([C@H]3C[C@@H]3C(=O)O)cn2)c1` [Example 10, (1 S,2S)-2-[5-(2′,6′-Dimethyl-4′-pyrazin-2-yl-biphenyl-3-ylmethoxy)-pyrazin-2-yl]-cyclopropanecarboxylic acid] was tested, and the EC50 was 13 nM.
With `Cc1cc(-c2ccnn2C)cc(C)c1-c1cccc(COc2cnc([C@H]3C[C@@H]3C(=O)O)cn2)c1` [Example 11, (1 S,2S)-2-{5-[2′,6′-Dimethyl-4′-(2-methyl-2H-pyrazol-3-yl)-biphenyl-3-ylmethoxy]-pyrazin-2-yl}-cyclopropanecarboxylic acid] the EC50 was 6 nM.
`Cc1cc(-c2nnn(CC(C)(C)O)n2)cc(C)c1-c1cccc(COc2cnc([C@H]3C[C@@H]3C(=O)O)cn2)c1` [Example 12, (1 S,2S)-2-(5-{4′-[2-(2-Hydroxy-2-methyl-propyl)-2H-tetrazol-5-yl]-2′,6′-dimethyl-biphenyl-3-ylmethoxy}-pyrazin-2-yl)-cyclopropanecarboxylic acid] gave an EC50 of 8 nM.
For `CCc1cccc(CC)c1-c1cccc(COc2cnc([C@H]3C[C@@H]3C(=O)O)cn2)c1` [Example 13, (1 S,2S)-2-[5-(2′,6′-Diethyl-biphenyl-3-ylmethoxy)-pyrazin-2-yl]-cyclopropane-carboxylic acid], the EC50 was 20 nM.
For `Cc1cc(OCC2CCCO2)cc(C)c1-c1ccc(F)c(COc2cnc([C@H]3C[C@@H]3C(=O)O)cn2)c1` (stereo partly drawn) [Example 14, (1 S,2S)-2-{5-[4-Fluoro-2′,6′-dimethyl-4′-(tetrahydro-furan-2-ylmethoxy)-biphenyl-3-ylmethoxy]-pyrazin-2-yl}-cyclopropanecarboxylic acid], the EC50 was 6 nM.
`O=C(O)[C@H]1C[C@@H]1c1cnc(OCc2cc(-c3c(Cl)cccc3Cl)ccc2F)cn1` [Example 15, (1 S,2S)-2-[5-(2′,6′-Dichloro-4-fluoro-biphenyl-3-ylmethoxy)-pyrazin-2-yl]-cyclopropanecarboxylic acid] showed an EC50 of 8 nM.
`Cc1cnc(-c2cc(C)c(-c3ccc(F)c(COc4cnc([C@H]5C[C@@H]5C(=O)O)cn4)c3)c(C)c2)nc1` [Example 16, (1 S,2S)-2-{5-[4-Fluoro-2′,6′-dimethyl-4′-(5-methyl-pyrimidin-2-yl)-biphenyl-3-ylmethoxy]-pyrazin-2-yl}-cyclopropanecarboxylic acid] was tested, and the EC50 was 3 nM.
`COc1cc(-c2cc(C)c(-c3ccc(F)c(COc4cnc([C@H]5C[C@@H]5C(=O)O)cn4)c3)c(C)c2)ccn1` [Example 17, (1 S,2S)-2-{5-[4-Fluoro-4′-(2-methoxy-pyridin-4-yl)-2′,6′-dimethyl-biphenyl-3-ylmethoxy]-pyrazin-2-yl}-cyclopropanecarboxylic acid] showed an EC50 of 7 nM.
`Cc1cc(OCCCS(C)(=O)=O)cc(C)c1-c1ccc(F)c(COc2cnc([C@H]3C[C@@H]3C(=O)O)cn2)c1` [Example 18, (1 S,2S)-2-{5-[4-Fluoro-4′-(3-methanesulfonyl-propoxy)-2′,6′-dimethyl-biphenyl-3-ylmethoxy]-pyrazin-2-yl}-cyclopropanecarboxylic acid] showed an EC50 of 7 nM.
Compound `Cc1cc(OCC2CCOCC2)cc(C)c1-c1ccc(F)c(COc2cnc([C@H]3C[C@@H]3C(=O)O)cn2)c1` [Example 19, (1 S,2S)-2-{5-[4-Fluoro-2′,6′-dimethyl-4′-(tetrahydro-pyran-4-ylmethoxy)-biphenyl-3-ylmethoxy]-pyrazin-2-yl}-cyclopropanecarboxylic acid] has an EC50 of 6 nM.
`CC(C)c1ccccc1-c1ccc(F)c(COc2cnc([C@H]3C[C@@H]3C(=O)O)cn2)c1` [Example 20, (1 S,2S)-2-[5-(4-Fluoro-2′-isopropyl-biphenyl-3-ylmethoxy)-pyrazin-2-yl]-cyclopropanecarboxylic acid] was tested, and the EC50 was 35 nM.
With `CC(C)(O)CCOc1ccc(-c2cc(COc3cnc([C@H]4C[C@@H]4C(=O)O)cn3)ccc2C(F)(F)F)cc1` [Example 21, (1 S,2S)-2-{5-[4′-(3-Hydroxy-3-methyl-butoxy)-6-trifluoromethyl-biphenyl-3-ylmethoxy]-pyrazin-2-yl}-cyclopropanecarboxylic acid] the EC50 was 3 nM.
`Cc1nnc(-c2ccc(-c3cc(COc4cnc([C@H]5C[C@@H]5C(=O)O)cn4)ccc3C(F)(F)F)cc2)o1` [Example 22, (1 S,2S)-2-{5-[4′-(5-Methyl-[1,3,4]oxadiazol-2-yl)-6-trifluoromethyl-biphenyl-3-ylmethoxy]-pyrazin-2-yl}-cyclopropanecarboxylic acid] gave an EC50 of 4 nM.
